For data set [1], the system named is 6-hydroxydopamine-lesioned rats. As to the kind of experiment: turning behavior in 6-hydroxydopamine-lesioned rats (dopamine agonist activity). Conditions: 1 mg/kg intraperitoneal. Format: in vivo, rat. From the text: In this test, nigro-neostriatal-lesioned rats are employed prepared by the procedure of Ungerstedt and Arbuthnott, Brain Res, 24, 485 (1970). A compound having dopamine agonist activity upon injection causes the rats to turn in circles contralateral to the side of the lesion. After a latency period, which varies from compound to compound, the number of turns is counted over a 15-minute period.

For the next data set, the system named is prolactin. As to the kind of experiment: inhibition of prolactin secretion in reserpine-treated male rats (serum prolactin). Format: in vivo, Sprague-Dawley rat. Conditions: intraperitoneal, one hour after treatment, reserpine-pretreated rats. The protocol: The compounds of this invention are also useful as prolactin inhibitors and as such can be employed in the treatment of inappropriate lactation, such as postpartum lactation, and of galactorrhea.
Adult male rats of the Sprague-Dawley strain weighing about 200 g. were housed in an air-conditioned room with controlled lighting (lights on 6 a.m.-8 p.m.) and fed lab chow and water ad libitum. Each rat received an intraperitoneal injection of 2.0 mg. of reserpine in aqueous suspension 18 hours before administration of the isoindole. The purpose of the reserpine was to keep prolactin levels uniformly elevated. The compounds under test were dissolved in water and were injected intraperitoneally at doses ranging from 5 mg/kg down to 50 mcg/kg. Each compound was administered at each dose level to a group of 10 rats, and a control group of 10 intact males received an equivalent amount of solvent. One hour after treatment all rats were killed by decapitation, and 150 μl aliquots of serum were assayed for prolactin.
The difference between the prolactin level of the treated rats and prolactin level of the control rats divided by the prolactin level of the control rats gives the percent inhibition of prolactin secretion attributable to the compounds of this invention. In the table, column 1 gives the name of the compound; and columns 2-4 the percent prolactin inhibition at the given dose level.

The next data set relates to mouse. Put plainly: intraperitoneal toxicity in the mouse. The data set is classed as in vivo. The protocol:
In using the compounds of this invention to inhibit prolactin secretion or to treat Prakinson's syndrome or for other pharmacologic action, a pharmaceutically active compound according to Formula I above, or a salt thereof with a pharmaceutically-acceptable acid, is administered to a subject suffering from Parkinsonism or in need of having their prolactin level reduced in an amount effective to alleviate some of the symptoms of Parkinsonism or to reduce an elevated prolactin level. Oral administration is preferred. If parenteral administration is used, the injection is preferably by the subcutaneous route using an appropriate pharmaceutical formulation. […] In particular, with intravenous or intramuscular administration, a water soluble pharmaceutically-acceptable salt is employed. For oral administration, a pharmaceutically active compound according to Formula I either as the free base or in the form of a salt thereof can also be mixed with standard pharmaceutical excipients and loaded into empty telescoping gelatin capsules or pressed into tablets. The oral dosage range is from about 0.01 to 10 mg/kg of mammalian weight and the parenteral dose range from about 0.0025 to 2.5 mg/kg of mammalian weight.

Structures can show the parent of a compound that is named as a salt.

In the case of `CCCN(CCC)C1CCc2c[nH]cc2C1` (racemic) [dl-5-di-n-propylamino-4,5,6,7-tetrahydro-2H-benzo[c]pyrrole maleate], the “rats exhibiting turning behavior” value in data set [1] was 1/3. For the same molecule, the “average turns per rat” value in data set [1] (turns counted over a 15-minute period after latency) worked out at 34 turns per rat. In addition, the figures for the “Percent Inhibition of Prolactin at a Given Dose Level” value with prolactin (5 mg/kg), in the data set on prolactin (50 mcg/kg) and with prolactin (500 mcg/kg) were 91%, 20% and 47%, respectively. In addition, the lethality result with mouse (dosages of 100-300 mg/kg, intraperitoneal) is given as “fatal”. In the data set on mouse (intraperitoneal dosages of 10-30 mg/kg), the deaths result is listed as “no deaths”.
Regarding `CCN(CC)C1CCc2c[nH]cc2C1` (racemic) [dl-5-diethylamino-4,5,6,7-tetrahydro-2H-benzo[c]pyrrole maleate], the “Percent Inhibition of Prolactin at a Given Dose Level” value is 23% with prolactin (5 mg/kg) and 25% in the data set on prolactin (500 mcg/kg).

For the origin of these results see US4235776A, “Tetrahydro-2H-benzo[c]pyrroles” (Eli Lilly and Company, priority 1979, dated 1980).
